# Results: patent publication US20240384268A1, “Oligonucleotides” (Hudson Institute of Medical Research, priority 2021, published 2024)
# Biological target: T1, TLR8 (Homo sapiens, UniProt Q9NR97)
# T1 sequence (Q9NR97 27-1041): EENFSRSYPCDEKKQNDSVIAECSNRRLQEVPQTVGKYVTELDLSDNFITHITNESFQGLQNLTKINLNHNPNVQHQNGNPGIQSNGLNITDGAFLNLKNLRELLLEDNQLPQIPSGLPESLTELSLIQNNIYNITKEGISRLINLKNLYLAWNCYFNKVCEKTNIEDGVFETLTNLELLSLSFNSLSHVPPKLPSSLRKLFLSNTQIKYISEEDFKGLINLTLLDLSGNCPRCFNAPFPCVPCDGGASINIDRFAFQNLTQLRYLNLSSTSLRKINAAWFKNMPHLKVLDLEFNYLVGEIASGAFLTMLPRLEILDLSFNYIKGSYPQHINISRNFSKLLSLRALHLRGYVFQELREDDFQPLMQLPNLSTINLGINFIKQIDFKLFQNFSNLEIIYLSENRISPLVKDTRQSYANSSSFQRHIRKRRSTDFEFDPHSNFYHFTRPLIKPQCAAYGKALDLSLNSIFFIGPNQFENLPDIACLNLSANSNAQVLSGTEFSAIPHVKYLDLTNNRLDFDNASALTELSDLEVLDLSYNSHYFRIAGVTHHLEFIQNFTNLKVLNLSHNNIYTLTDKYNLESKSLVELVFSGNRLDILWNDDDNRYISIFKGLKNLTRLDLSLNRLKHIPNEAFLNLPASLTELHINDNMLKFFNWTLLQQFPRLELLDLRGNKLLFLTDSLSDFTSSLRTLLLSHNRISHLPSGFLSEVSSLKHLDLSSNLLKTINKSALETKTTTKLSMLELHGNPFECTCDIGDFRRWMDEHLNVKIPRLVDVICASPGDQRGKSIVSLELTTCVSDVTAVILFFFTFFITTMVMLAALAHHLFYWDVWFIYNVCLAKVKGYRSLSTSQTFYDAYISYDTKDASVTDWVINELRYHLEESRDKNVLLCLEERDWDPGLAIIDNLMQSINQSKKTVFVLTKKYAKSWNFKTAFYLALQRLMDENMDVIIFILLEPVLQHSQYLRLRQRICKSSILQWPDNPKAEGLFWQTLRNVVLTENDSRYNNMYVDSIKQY
# Experiment: HEK-TLR8 NF-κB-luciferase reporter, R848 or Motolimod stimulation (potentiation or inhibition)
# Assay type: cell-based
# Set-up: expressed in transfected cells; host or cells: 293XLhTLR8 (HEK293)
# Details: relative to R848 only; for TLR8 100 nM (averaged NF-κB-Luciferase level relative to R848 condition, fold increase): ASO 100 nM; for TLR8 500 nM (averaged NF-κB-Luciferase level relative to R848 condition, fold increase): ASO 500 nM
# Protocol: (§1) In such examples, potentiation of TLR8 activity can be identified by observation of an overall increased TLR8 response of the cell population, or a higher proportion of cells having TLR8-positive activity as compared to a negative control condition in which cells are treated with TLR8 agonist in the absence of the oligonucleotide (or in the presence of an appropriate control non-potentiating agent). In one example, 293XLhTLR8 (referred to as HEK-TLR8) cells are transfected with pNF-κB-Luc4 reporter, incubated with an oligonucleotide, and then stimulated with R848. TLR8 activity can be determined by a luciferase assay, which measures activated NF-κB by luminescence. TLR8 activity can also be analysed by measuring cytokine levels, for example by ELISA.
# as §1, with “inhibition” for “potentiation”, “decreased” for “increased”, “lower” for “higher”, “positive” for “negative”, “inhibitory” for “non-potentiating”
# For cGAS stimulations, cells were treated for indicated duration with ASOs, prior to transfection with ISD70 (human cells) or ISD45 (mouse cells) (the ASOs were not washed off prior to ISD transfection unless otherwise indicated). The cGAS ligands ISD45 (Stetson and Medzhitov, 2006) and ISD70 (also known as VACV-70 (Unterholzner et al., 2010)) (Table 1) were resuspended as follows: 5 1d of sense and 5 μl of antisense strands at 10 μg/μl were added to 90 μl PBS under sterile conditions, heated at 75° C. for 30 min, prior to letting cool down at room temperature and aliquoting (stock at 1 μg/1 l). The ISDs were transfected at a concentration of […] at a ratio of 1 μg:1 μl with Lipofectamine 2000 in Opti-MEM (Thermo Fisher Scientific). HEK-TLR3, HEK-TLR7 and […] were treated with indicated concentration of ASOs for 20-50 min, prior to stimulation with poly(I:C) (Invivogen), R848 (Invivogen), Motolimod (MedChemExpress) and the Class B CpG oligonucleotides ODN 2006 (synthesised by IDT and resuspended in RNase-free TE buffer [Table 1]), respectively. The TLR2/1 agonist PAM3CSK4 (Invivogen), the TLR4 agonist lipopolysaccharide (Invivogen), the Class B CpG oligonucleotides ODN 1826 (synthesised by IDT and resuspended in RNase-free TE buffer), the mouse Sting agonist DMXAA (Cayman) and the human STING agonist (compound #3 from (Raanjulu et al., 2018), referred to as GSK herein—kind gift from Cancer Therapeutics CRC, Australia) were used at indicated concentrations. Aspirin (Sigma—A2093) was resuspended in pure medium to 10 mM, filter sterilised and added to the cells at 2 mM final. All ASOs were synthesised by Integrated DNA Technologies (IDT), and resuspended in RNase-free TE buffer, pH 8.0 (Thermo Fisher Scientific). Cell viability was assessed by adding 1× fresh resazurin solution to the wells (10λ solution made up with 7 mg resazurin [Sigma—R7017] dissolved in 3.5 ml PBS, sterile filtered at […]) for 4 h, prior to reading at with a Fluostar OPTIMA (BMG LABTECH) plate-reader (fluorescence: Excitation 535 nm, Emission 590); wells with medium only and 1× resazurin were used as blanks.
Sequence,"TLR8 100 nM (averaged NF-κB-Luciferase level relative to R848 condition, fold increase)","TLR8 500 nM (averaged NF-κB-Luciferase level relative to R848 condition, fold increase)"
"ACACTTCGTGGGGTCC (antisense; LNA-modified, pattern not given here) [HPRT LNA-665 V1]",0.422,1.029
"TGTGATGGCCTCCCAT (antisense; LNA-modified, pattern not given here) [HPRT LNA-334 V1]",0.582,1.596
"CAACACTTCGTGGGGT (antisense; LNA-modified, pattern not given here) [HPRT LNA-667 V1]",0.591,0.690
"GTTCAGTCCTGTCCAT (antisense; LNA-modified, pattern not given here) [HPRT LNA-292 V1]",1.069,4.129
"CCAAGATCAGCAGTCT (antisense; LNA-modified, pattern not given here) [CTNN2B-2341 LNA KL]",1.015,2.920
"GATAGCACCTTCAGCA (antisense; LNA-modified, pattern not given here) [CTNN2B-1294 LNA KL]",0.821,2.863
"TTTTGGCTGGGATCAA (antisense; LNA-modified, pattern not given here) [CAMSAP1-4697 LNA KL]",0.542,1.412
"GCCATCCACTTGATAG (antisense; LNA-modified, pattern not given here) [EGFR-2874 LNA V1]",0.440,0.681
"GGCTGGAATCCGAGTT (antisense; LNA-modified, pattern not given here) [EGFR-4705 LNA KL]",0.562,0.577
"TGCACACTTCGTACCC (antisense; LNA-modified, pattern not given here) [CAMSAP1-4916 LNA V1]",0.411,0.370
"GTGTCTGGAAGCTTCC (antisense; LNA-modified, pattern not given here) [CTNN2B-809 LNA V1]",0.923,2.057
"TTCGTGGGGTCCTTTT (antisense; LNA-modified, pattern not given here) [HPRT LNA-661 V1]",0.621,3.144
"GGTTACGGCTCAGTAT (antisense; LNA-modified, pattern not given here) [CAMSAP1-4295 LNA KL]",0.804,1.848
"GCAGGCTCAGTGATGT (antisense; LNA-modified, pattern not given here) [CTNN2B-1642 LNA V1]",0.638,1.440
"TGATGGCCTCCCATCT (antisense; LNA-modified, pattern not given here) [HPRT LNA-332 V1]",0.374,0.263
"TGGCCTCCCATCTCCT (antisense; LNA-modified, pattern not given here) [HPRT LNA-329 V1]",0.495,1.127
"TCCAACACTTCGTGGG (antisense; LNA-modified, pattern not given here) [HPRT LNA-669 V1]",0.413,0.491
"GCATCCACCACGTCGT (antisense; LNA-modified, pattern not given here) [EGFR-3267 LNA V1]",0.607,0.738
"GTATCGAAAGAGTCTG (antisense; LNA-modified, pattern not given here) [EGFR-3908 LNA KL]",0.637,1.781
"GTCTTGGCTTCGTGGA (antisense; LNA-modified, pattern not given here) [MB21D1-522 LNA V1]",0.678,2.137
"GCCATGTTTCTTCTTG (antisense; LNA-modified, pattern not given here) [MB21D1-1248 LNA KL]",0.430,0.431
"TCGTAGTTGCTTCCTA (antisense; LNA-modified, pattern not given here) [MB21D1-1181 LNA KL]",0.557,1.583
"GTCCCCTGTTGACTGG (antisense; LNA-modified, pattern not given here) [HPRT LNA-489 KL]",0.335,0.304
